Consider five compounds from US4760078A, “Immunomodulator 1,2-dithiol-3-thione derivative composition, use method and process of producing the same” (priority 1986, dated 1988).

Each structure is given as a SMILES string. Like-named read-outs stand apart in the source and are kept apart here.

In series [1] the test system is mouse spleen cells. The series can be described thus: Action against blast formation reaction of mouse spleen cells (ConA-induced DNA synthesis, 3H-thymidine intake). The class given is cell-based, BALB/C mouse. The following applies: Experiment 1, 10^-4 M, ConA 2 μg/ml, read-out: Activity (relative activity, 3H-thymidine intake, control = 100). As to the method: Action Against Blast Formation Reaction of Mouse Spleen Cells The action of the compound of the present invention against the DNA synthesis of mouse spleen cells, which synthesis is induced by Concanavalin A (hereinafter referred to as ConA for short) was examined. 1×10^5 spleen cells of BALB/C mouse (female, 10 weeks old) were incubated with 2 μg/ml of ConA and 10^-6, 10^-5, or 10^-4 M of the compound of the present invention in RPMI 1640 medium containing 10% […] at 37° C. in an atmosphere containing 5% CO2 for 48 hours. Subsequently, ^3 H-thymidine was added to the culture and then the culture was incubated for another 18 hours. The incubated cells were collected with a harvester and the intake of ^3 H-thymidine by the cells was determined using a scintillation counter. The activity in the table is relative activity when the activity of the control is 100.

Series [2] deals with mice. In words: Acute toxicity (oral). The class given is in vivo, ddY mice. The following applies: 300 mg/kg, 6 mice per group. From the text:
Oral toxicity of the compound of the present invention was examined using mice.
The compound of the present invention was suspended in 0.5% solution of methyl cellulose and the suspension was orally administered to ddY mice (male, 7 weeks old, 6 mice per group). The conditions of the mice were observed and the number of deaths in 14 days from administration was checked.

Series [3] concerns mouse spleen cells. The series can be described thus: Action against blast formation reaction of mouse spleen cells (ConA-induced DNA synthesis, 3H-thymidine intake). The conditions noted are these: ConA 2 μg/ml, read-out: Activity (relative activity, 3H-thymidine intake, control = 100). It counts as cell-based, BALB/C mouse.
The test system of series [4] is immune system. The conditions noted are these: published by the inventors, Pharmaceutical Society of Japan 1984; cited from earlier work.
The test system of series [5] is spleen cells producing anti-SRBC antibody. The series can be described thus: Antibody production-promoting action (PFC number against SRBC, Jerne's method). It counts as in vivo, ICR mice. The following applies: oral, twice (day of immunization and next day), 3 days after immunization. As to the method: Antibody Production-Promoting Action
The action of the compound of the present invention with respect to the antibody production of mouse against sheep red blood cells (SRBC) was examined.
To tail veins of ICR mice (female, 7 weeks old, 4 mice in each group), 5×10^7 SRBC were injected to immunize the mice. The compound of the present invention suspended in 0.5% methyl cellulose solution was orally administered twice to the mice on the day of immunization and on the next day. Three days after immunization, the number of spleen cells producing anti-SRBC antibody (PFC number) was checked by Jerne's method (Science Vol. 140, p. 405 (1963)).
In Table 2, the activity is the relative PFC number when the PFC number of the control is 100.

Series [6] has as its system rat EAE. In words: Action against experimental allergic encephalomyelitis (EAE) of rats. It counts as in vivo, Lewis rat. The conditions noted are these: subcutaneous, 8 times; for Survival Rate: 50 days after inoculation, control 6/8; for Crisis Day (Mean): control 9.1 ± 0.6; for Clin. Score (Mean): score 0 to 5, control 1.0 ± 0.4, * p < 0.01.
The conditions of series [7]: cited from earlier work.

On to `O=C(O)CCCCC1CCSS1` (racemic) [Lipoic Acid, DL-thioctic acid, reference compound], for which, in series [1], the activity at 100 µM amounted to 234%. Moreover, in series [2], the “number of deaths in 14 days from administration” value is recorded as “one mouse in 6 mice died”. Also, the activity at 10 µM was 146% in series [3] (Experiment 1, 10^-5 M) and 159% in series [3] (Experiment 2, 10^-5 M). In addition, the activity at 1 µM came out at 142% in series [3] (Experiment 1, 10^-6 M) and 95% in series [3] (Experiment 2, 10^-6 M). The immunomodulating effect entry in series [4] is listed as “excellent immunomodulating effect”.

`S=c1cc(C=CC=Cc2ccccc2)ss1` [Compound 1, 5-(4-phenyl-1,3-butadienyl)-1,2-dithiol-3-thione]: the activity at 100 µM in series [1] amounted to 196%. Also, the “Activity (relative PFC number, control = 100)” value in series [5] (0.4 mg/kg) amounted to 258. Further, the “Activity (relative PFC number, control = 100)” value in series [5] (2.0 mg/kg) is 149. Further, in series [6] (0.3 mg/kg/d), the “Survival Rate” value is given as 8/8, the “Crisis Day (Mean)” value amounted to 10.5 ± 0.9 and the “Clin. Score (Mean)” value worked out at 0.3 ± 0.1. In series [6] (3 mg/kg/d), the “Survival Rate” value is on record as 8/8, the “Crisis Day (Mean)” value is given as 10.3 ± 0.7 and the “Clin. Score (Mean)” value is 0.2 ± 0.1. In series [3] (Experiment 1, 10^-5 M), the activity at 10 µM stood at 281%. The activity at 1 µM in series [3] (Experiment 1, 10^-6 M) was 250%.

Take `COc1ccc(C=CC=Cc2cc(=S)ss2)cc1` [Compound 3, 5-{4-(4-methoxyphenyl)-1,3-butadienyl}-1,2-dithiol-3-thione]: the activity at 100 µM in series [1] is 291%. In addition, the “Activity (relative PFC number, control = 100)” value amounted to 117 in series [5] (0.4 mg/kg) and 186 in series [5] (2.0 mg/kg). For the same compound, the activity at 10 µM in series [3] (Experiment 1, 10^-5 M) worked out at 338%. The activity at 1 µM in series [3] (Experiment 1, 10^-6 M) came out at 175%.

With `Cc1ccc(C=CC=Cc2cc(=S)ss2)cc1` [Compound 5, 5-{4-(p-toluyl)-1,3-butadienyl}-1,2-dithiol-3-thione], the activity at 10 µM in series [3] (Experiment 2, 10^-5 M) was found to be 228%. Further, the activity at 1 µM in series [3] (Experiment 2, 10^-6 M) turned out to be 130%.

In the case of `c1ccc([C@H]2CN3CCSC3=N2)cc1` [levamisole], the side effects entry in series [7] (clinical use, reported) was “vomiturition, eruption and hemotoxicity”. Also, in series [7] (disappears upon stopping the administration), the “most serious side effect” value is on record as “granulocytopenia”.
